These are literature values, as cited in US12161733B2, “Chemical conjugates of Evans Blue derivatives and their use as radiotherapy and imaging agents for targeting prostate cancer” (THE UNITED STATES OF AMERICA, AS REPRESENTED BY THE …, priority 2018, dated 2024).

This data set has as its system prostate cancer patients.

`O=C([O-])CN1CCN(CC(=O)[O-])CCN(CC(=O)NCC2CCC(C(=O)N[C@@H](Cc3ccc4ccccc4c3)C(=O)NCCCC[C@H](NC(=O)N[C@@H](CCC(=O)O)C(=O)O)C(=O)O)CC2)CCN(CC(=O)[O-])CC1.[177Lu+3]` (some centres unmarked) [^177Lu-PSMA-617]: the side effects entry (long-term toxicity unknown) was “only stage 1-2 hematologic toxicities and sporadically mild xerostomia and fatigue”. Besides, the partial response rates (up to 3 cycles, response limited to as few as several weeks in some patients) is listed as 70%-80%.
